Active and inactive are the calls of the source. How the calls were made is not given here.
Tested on: GENE-TOX genotoxicity assays, various organisms and cells
Test: GENE-TOX mutagenicity studies
Details: for call: Assay Type: In vivo carcinogenicity studies
[1] = Species/Cell Type: Mammalian polychromatic erythrocytes, Assay Type: Micronucleus test, chromosome aberrations, Assay Code: MNT+, Evaluation Type: Evaluation B (Post-1980)
[2] = Species/Cell Type: Mammalian polychromatic erythrocytes, Assay Type: Micronucleus test, chromosome aberrations, Assay Code: MNTT, Evaluation Type: Evaluation A (Pre-1980)
[3] = Species/Cell Type: Mouse, Sex: Male, Assay Type: Sperm morphology, Assay Code: SPI+, Evaluation Type: Evaluation A (Pre-1980)
[4] = Species/Cell Type: Neurospora crassa, Assay Type: Aneuploidy, chromosome aberrations, Assay Code: NEN-, Evaluation Type: Evaluation A (Pre-1980)
[5] = Species/Cell Type: Nonhuman, Assay Code: CCG+, Evaluation Type: Evaluation A (Pre-1980)
[6] = Species/Cell Type: Salmonella typhimurium (one or more of the five standard strains: TA98, TA100, TA1535, TA1537, and TA1538), Assay Type: Histidine reverse gene mutation, Ames assay, Assay Code: SALT, Evaluation Type: Evaluation A (Pre-1980)
[7] = Species/Cell Type: Salmonella typhimurium (one or more of the five standard strains: TA98, TA100, TA1535, TA1537, and TA1538), Assay Type: Histidine reverse gene mutation, Ames assay, Assay Code: SAL+*, Activation: With metabolic activation, Evaluation Type: Evaluation A (Pre-1980)
[8] = Species/Cell Type: Drosophila melanogaster, Assay Type: Sex-linked recessive lethal gene mutation, Assay Code: SRLT, Evaluation Type: Evaluation A (Pre-1980)
[9] = Species/Cell Type: Vicia faba, Assay Type: Chromosome aberrations, Assay Code: VIC+, Evaluation Type: Evaluation A (Pre-1980)
[10] = Species/Cell Type: Human, Assay Type: Sister-chromatid exchange (SCE) in vitro, Assay Code: SC1+, Evaluation Type: Evaluation B (Post-1980)
[11] = Species/Cell Type: Nonhuman, Assay Code: CCGT, Evaluation Type: Evaluation A (Pre-1980)
[12] = Species/Cell Type: Nonhuman, Assay Type: Sister-chromatid exchange (SCE) in vitro, Assay Code: SC2+D, Dose Response: With dose response, Evaluation Type: Evaluation B (Post-1980)

COc1cc2c(c(OC)c1OC)-c1ccc(OC)c(=O)cc1[C@@H](NC(C)=O)CC2
mutagenic call (Species/Cell Type: Drosophila melanogaster, Assay Type: Aneuploidy, sex chromosome gain, chromosome aberrations, Assay Code: DAG+F, Evaluation Type: Evaluation A (Pre-1980)): active; positive | mutagenic call (Species/Cell Type: Drosophila melanogaster, Assay Type: Aneuploidy, whole sex chromosome loss, chromosome aberrations, Assay Code: DAC+F, Evaluation Type: Evaluation A (Pre-1980)): active; positive | mutagenic call (Species/Cell Type: Glycine max (soybean), Assay Type: Gene mutation, Assay Code: GLM+, Evaluation Type: Evaluation A (Pre-1980)): active; positive | mutagenic call (Species/Cell Type: Human, Sex: Male, Assay Type: Sperm morphology, Assay Code: SPHT, Evaluation Type: Evaluation A (Pre-1980)): no conclusion | mutagenic call (Species/Cell Type: Mammalian cell culture, nonhuman, Assay Type: Micronucleus test in vitro, chromosome aberrations, Assay Code: MN&+, Evaluation Type: Evaluation A (Pre-1980)): active; positive | mutagenic call [1]: active; positive | mutagenic call [2]: no conclusion | mutagenic call [3]: active; positive | mutagenic call [4]: inactive; negative | mutagenic call (Species/Cell Type: Nonhuman, Assay Type: Sister-chromatid exchange (SCE) in vivo, Assay Code: SC3-, Evaluation Type: Evaluation B (Post-1980)): inactive; negative | mutagenic call (Species/Cell Type: Plant, Assay Type: Micronucleus test, chromosome aberrations, Assay Code: MNP+, Evaluation Type: Evaluation A (Pre-1980)): active; positive

CCN(C)N=O
call [5]: active; positive | mutagenic call [6]: no conclusion

Cc1ccc2c(ccc3c4c(ccc32)C(=O)CC4)c1
mutagenic call [6]: no conclusion

CC(=O)Nc1ccc(/C=C/c2ccccc2)cc1
mutagenic call (Species/Cell Type: Human diploid fibroblasts, Assay Type: Unscheduled DNA synthesis (UDS) in vitro, DNA effects, Assay Code: UDH-, Evaluation Type: Evaluation A (Pre-1980)): inactive; negative | mutagenic call [7]: active; positive

c1cc2c3c(cccc3c1)CC2
mutagenic call (Species/Cell Type: Drosophila melanogaster, Assay Type: Aneuploidy, sex chromosome gain, chromosome aberrations, Assay Code: DAGT, Evaluation Type: Evaluation A (Pre-1980)): no conclusion

O=C[C@H](O)[C@@H](O)[C@H](O[C@@H]1O[C@H](CO)[C@H](O)[C@H](O)[C@H]1O)[C@H](O)CO
mutagenic call (Species/Cell Type: Human lymphocytes, Assay Type: Sister-chromatid exchange (SCE) in vitro, Assay Code: SCLT, Evaluation Type: Evaluation B (Post-1980)): no conclusion | mutagenic call (Species/Cell Type: Human, Assay Type: Sister-chromatid exchange (SCE) in vitro, Assay Code: SC1T, Evaluation Type: Evaluation B (Post-1980)): no conclusion | mutagenic call (Species/Cell Type: Nonhuman, Assay Type: Sister-chromatid exchange (SCE) in vivo, Assay Code: SC3T, Evaluation Type: Evaluation B (Post-1980)): no conclusion

O=C(O)COc1cc(Cl)c(Cl)cc1Cl
mutagenic call (Species/Cell Type: Drosophila melanogaster, Assay Type: Aneuploidy, sex chromosome gain, chromosome aberrations, Assay Code: DAG-M-F, Evaluation Type: Evaluation A (Pre-1980)): inactive; negative | mutagenic call (Species/Cell Type: Drosophila melanogaster, Assay Type: Aneuploidy, whole sex chromosome loss, chromosome aberrations, Assay Code: DAC-M-F, Evaluation Type: Evaluation A (Pre-1980)): inactive; negative | mutagenic call (Species/Cell Type: Drosophila melanogaster, Assay Type: Sex-linked recessive lethal gene mutation, Assay Code: SRL+, Evaluation Type: Evaluation A (Pre-1980)): active; positive | mutagenic call [8]: no conclusion | mutagenic call [2]: no conclusion | mutagenic call (Species/Cell Type: Nonhuman bone marrow, Assay Type: Chromosome aberrations, in vivo, Assay Code: CY#+D, Dose Response: With dose response, Evaluation Type: Evaluation A (Pre-1980)): active; positive | mutagenic call (Species/Cell Type: Saccharomyces cerevisiae, Assay Type: Reverse gene mutation, Assay Code: YER+, Evaluation Type: Evaluation A (Pre-1980)): active; positive | mutagenic call (Species/Cell Type: Salmonella typhimurium, Serratia marcesens, Assay Type: Forward and reverse gene mutation, host-mediated assay, Assay Code: HM2T, Evaluation Type: Evaluation A (Pre-1980)): no conclusion | mutagenic call [9]: active; positive

Oc1cccc2cccnc12
mutagenic call (Species/Cell Type: Human lymphocytes, Assay Type: Sister-chromatid exchange (SCE) in vitro, Assay Code: SCL+, Evaluation Type: Evaluation B (Post-1980)): active; positive | mutagenic call [10]: active; positive | mutagenic call (Species/Cell Type: Mammalian polychromatic erythrocytes, Assay Type: Micronucleus test, chromosome aberrations, Assay Code: MNTT, Evaluation Type: Evaluation B (Post-1980)): no conclusion | mutagenic call [4]: inactive; negative | call (Species/Cell Type: Nonhuman, Assay Code: CCG-, Evaluation Type: Evaluation A (Pre-1980)): inactive; negative | mutagenic call (Species/Cell Type: Saccharomyces cerevisiae, Assay Type: Mitotic recombination or gene conversion, Assay Code: YEC-, Evaluation Type: Evaluation A (Pre-1980)): inactive; negative | mutagenic call [7]: active; positive | mutagenic call [9]: active; positive

Oc1c2ccccc2c2ccc3cccc4ccc1c2c43
mutagenic call (Species/Cell Type: Chinese hamster lung (V79) cells, Assay Type: Forward gene mutation at the HPRT or ouabain locus, Assay Code: V79+/-*, Activation: With metabolic activation, Evaluation Type: Evaluation A (Pre-1980)): inactive; positive without activation, negative with activation | call [11]: no conclusion | mutagenic call (Species/Cell Type: Salmonella typhimurium (one or more of the five standard strains: TA98, TA100, TA1535, TA1537, and TA1538), Assay Type: Histidine reverse gene mutation, Ames assay, Assay Code: SAL+, Evaluation Type: Evaluation A (Pre-1980)): active; positive

CC(=O)OC/C=C(C)/C=C/C=C(C)/C=C/C1=C(C)CCCC1(C)C
mutagenic call [10]: active; positive | mutagenic call (Species/Cell Type: Nonhuman, Assay Type: Sister-chromatid exchange (SCE) in vitro, Assay Code: SC2T, Evaluation Type: Evaluation B (Post-1980)): no conclusion

CCOc1ccc(NC(C)=O)cc1
mutagenic call [1]: active; positive | call [5]: active; positive | mutagenic call (Species/Cell Type: Nonhuman, Assay Type: Sister-chromatid exchange (SCE) in vivo, Assay Code: SC3+, Evaluation Type: Evaluation B (Post-1980)): active; positive

O=CCCCC=O
mutagenic call (Species/Cell Type: Chinese hamster ovary (CHO) cells, Assay Type: Forward gene mutation at the HPRT locus, Assay Code: CHO-, Evaluation Type: Evaluation B (Post-1980)): inactive; negative | mutagenic call [12]: active; positive

COc1cc([C@@H]2c3cc4c(cc3[C@H](O)[C@H]3COC(=O)[C@H]23)OCO4)cc(OC)c1OC
mutagenic call (Species/Cell Type: Chinese hamster ovary (CHO) cells, Assay Type: Forward gene mutation at the HPRT locus, Assay Code: CHOT, Evaluation Type: Evaluation B (Post-1980)): no conclusion

NC(=O)NO
mutagenic call (Species/Cell Type: Chinese hamster lung (V79) cells, Assay Type: Forward gene mutation at the HPRT or ouabain locus, Assay Code: V79-, Evaluation Type: Evaluation A (Pre-1980)): inactive; negative | mutagenic call (Species/Cell Type: Escherichia coli polA (W3119 vs P3478), Assay Type: Rec-assay, DNA effects (bacterial DNA repair), Assay Code: RE1+, Evaluation Type: Evaluation A (Pre-1980)): active; positive | mutagenic call (Species/Cell Type: Human lymphocytes or leukocytes, Assay Type: Chromosome aberrations in vitro, Assay Code: CY7+, Evaluation Type: Evaluation A (Pre-1980)): active; positive | mutagenic call [2]: no conclusion | mutagenic call (Species/Cell Type: Mouse (BALB/c-3T3) cells, Assay Type: Cell transformation, Assay Code: CTB-, Evaluation Type: Evaluation A (Pre-1980)): inactive; negative | mutagenic call [3]: active; positive | call [11]: no conclusion | mutagenic call [12]: active; positive | mutagenic call (Species/Cell Type: Nonhuman, Assay Type: Sister-chromatid exchange (SCE) in vitro, Assay Code: SC2-, Evaluation Type: Evaluation A (Pre-1980)): inactive; negative | mutagenic call (Species/Cell Type: Saccharomyces cerevisiae, Assay Type: Mitotic recombination or gene conversion, Assay Code: YEC+, Evaluation Type: Evaluation A (Pre-1980)): active; positive | mutagenic call (Species/Cell Type: Syrian hamster embryo (SA7/SHE) cells, Assay Type: Cell transformation, viral enhanced, Assay Code: CT7+, Evaluation Type: Evaluation A (Pre-1980)): active; positive | mutagenic call (Species/Cell Type: Tradescantia species, Assay Type: Chromosome aberrations, Assay Code: TRC+, Evaluation Type: Evaluation A (Pre-1980)): active; positive

O=NN1CCCC1=O
mutagenic call (Species/Cell Type: Bacillus subtilis (H17 vs M45), Assay Type: Rec-assay, spot test, DNA effects (bacterial DNA repair), Assay Code: REW+, Evaluation Type: Evaluation A (Pre-1980)): active; positive

CCCCC(CC)COC(=O)c1ccccc1C(=O)OCC(CC)CCCC (stereo not drawn)
call [5]: active; positive | mutagenic call (Species/Cell Type: Nonhuman, Assay Type: Sister-chromatid exchange (SCE) in vitro, Assay Code: SC2T, Evaluation Type: Evaluation A (Pre-1980)): no conclusion | mutagenic call (Species/Cell Type: Rodents, Sex: Male, Assay Type: Dominant lethal test, Assay Code: DLT+, Evaluation Type: Evaluation A (Pre-1980)): active; positive

CCc1nc(N)nc(N)c1-c1ccc(Cl)cc1
mutagenic call [6]: no conclusion

O=c1cc[nH]c(=O)[nH]1
mutagenic call [8]: no conclusion

[Cl][La]([Cl])[Cl]
mutagenic call (Species/Cell Type: Bacillus subtilis (H17 vs M45), Assay Type: Rec-assay, spot test, DNA effects (bacterial DNA repair), Assay Code: REW-, Evaluation Type: Evaluation A (Pre-1980)): inactive; negative

O=C(O)CNc1ccc(O)cc1
mutagenic call (Species/Cell Type: Allium cepa, Assay Type: Chromosome aberrations, Assay Code: ALC+, Evaluation Type: Evaluation A (Pre-1980)): active; positive
